Measurements from US20130109682A1, “CYCLIC ETHER COMPOUNDS USEFUL AS KINASE INHIBITORS” (NOVARTIS AG, priority 2010, published 2013).

What was measured:
GSK3β = GSK3β (Homo sapiens, UniProt P49841); experiment: GSK3β ATP depletion assay; type: biochemical; conditions: ATP depletion assay; read-out: GSK3b IC50
In short: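 Human GSK3β (5 nM) preincubated 15 min with 10 μM biotinylated phospho-CREB peptide in pH 7.5 Tris buffer (15 mM MgCl2, 1 mM DTT, 0.1% BSA, 2.5% DMSO). Reaction started with 2 μM ATP and run to about 50% ATP depletion. Remaining ATP measured by KinaseGlo luminescence.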

PIM1 = PIM1 (Homo sapiens, UniProt P11309); experiment: Pim 1 AlphaScreen assay (high ATP); type: biochemical; conditions: read-out: Pim1 IC50
Chain of PIM1 (P11309 whole entry): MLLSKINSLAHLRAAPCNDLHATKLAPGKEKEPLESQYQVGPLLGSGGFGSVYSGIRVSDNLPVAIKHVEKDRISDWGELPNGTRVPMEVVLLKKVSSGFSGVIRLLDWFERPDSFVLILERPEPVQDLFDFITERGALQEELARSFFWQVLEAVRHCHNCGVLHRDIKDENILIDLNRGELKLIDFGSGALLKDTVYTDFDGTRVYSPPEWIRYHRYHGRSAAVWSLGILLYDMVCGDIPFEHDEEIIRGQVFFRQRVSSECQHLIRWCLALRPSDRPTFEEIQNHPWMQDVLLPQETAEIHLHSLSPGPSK
Procedure: (§1) Pim1, Pim2, Pim3 AlphaScreen Assay Pim 1, Pim 2 & Pim 3 AlphaScreen assays using high ATP (11-125×ATP Km) were used to determine the biochemical activity of the inhibitors. The activity of Pim 1, Pim 2, & Pim 3 is measured using a homogeneous bead based system quantifying the amount of phosphorylated peptide substrate resulting from kinase-catalyzed phosphoryl transfer to a peptide substrate. Compounds to be tested are dissolved in 100% DMSO and directly distributed to a white 384-well plate at […] per well. To start the reaction, 5 μl of 100 nM Bad peptide (Biotin-AGAGRSRHSSYPAGT —OH) and ATP (concentrations described below) in assay buffer (50 mM Hepes, pH=7.5, 5 mM MgCl2, 0.05% BSA, 0.01% Tween-20, 1 mM DTT) is added to each well. This is followed by the addition of 5 μl/well of Pim 1, Pim 2 or Pim 3 kinase in assay buffer (concentrations described below). Final assay concentrations (described below) are in 2.5% DMSO. The reactions are performed for ˜2 hours, then stopped by the addition of 10 μl of 0.75 μg/ml anti-phospho Ser/Thr antibody (Cell Signaling), 10 μg/ml Protein A AlphaScreen beads (Perkin Elmer), and 10 μg/ml streptavidin coated AlphaScreen beads in stop/detection buffer (50 mM EDTA, 95 mM Tris, pH=7.5, 0.01% Tween-20). The stopped reactions are incubated overnight in the dark. The phosphorylated peptide is detected via an […] initiated chemiluminescence/fluorescence cascade using the Envision plate reader (Perkin Elmer).
(§2) IC50, the half maximal inhibitory concentration, represents the concentration of a test compound that is required for 50% inhibition of its target in vitro under the described assay conditions.

PIM2 = PIM2 (Homo sapiens, UniProt Q9P1W9); experiment: Pim 2 AlphaScreen assay (high ATP); type: biochemical; conditions: read-out: Pim2 IC50
Chain of PIM2 (Q9P1W9 whole entry): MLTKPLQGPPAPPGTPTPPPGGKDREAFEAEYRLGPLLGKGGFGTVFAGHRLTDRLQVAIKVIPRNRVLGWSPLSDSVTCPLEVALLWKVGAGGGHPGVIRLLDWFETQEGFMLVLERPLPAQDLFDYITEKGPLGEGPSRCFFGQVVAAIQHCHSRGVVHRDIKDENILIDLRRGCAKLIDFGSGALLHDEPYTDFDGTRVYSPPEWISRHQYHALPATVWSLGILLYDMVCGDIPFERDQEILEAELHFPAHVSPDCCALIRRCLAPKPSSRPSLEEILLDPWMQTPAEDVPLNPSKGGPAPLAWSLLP
Procedure: as §1, §2

PIM3 = PIM3 (Homo sapiens, UniProt Q86V86); experiment: Pim 3 AlphaScreen assay (high ATP); type: biochemical; conditions: read-out: Pim3 IC50
Procedure: as §1, §2

[1] = test system: KMS11 (human myeloma cell line); experiment: Cell proliferation assay (CellTiter-Glo), KMS11; type: cell-based; conditions: Homo sapiens, KMS-11; KMS11 cells, cell proliferation; read-out: KMS11-Luc EC50
In short: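 KMS11 cells in IMDM with 10% FBS and sodium pyruvate, seeded at 2000 cells/well on assay day. Compound added at 2× to equal volume of cells, incubated 3 days at 37° C. Viability read by CellTiter-Glo luminescence; EC50 derived.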

Chain of GSK3β (P49841 whole entry, species assumed): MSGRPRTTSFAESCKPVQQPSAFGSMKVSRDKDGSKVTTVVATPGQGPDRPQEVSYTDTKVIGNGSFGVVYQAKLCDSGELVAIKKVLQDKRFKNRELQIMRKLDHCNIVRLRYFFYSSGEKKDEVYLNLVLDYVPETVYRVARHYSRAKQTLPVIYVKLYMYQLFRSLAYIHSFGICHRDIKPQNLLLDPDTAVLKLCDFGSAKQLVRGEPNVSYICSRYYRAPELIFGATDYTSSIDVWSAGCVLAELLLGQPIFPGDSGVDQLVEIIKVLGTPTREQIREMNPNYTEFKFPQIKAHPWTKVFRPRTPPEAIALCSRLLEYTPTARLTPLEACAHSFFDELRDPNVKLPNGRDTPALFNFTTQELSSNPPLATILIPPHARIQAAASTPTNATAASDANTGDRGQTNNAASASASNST

Row | SMILES | IC50 (GSK3β) | IC50 (PIM1) | IC50 (PIM2) | IC50 (PIM3) | EC50 [1]
1 | CC(C)C1OC(c2ccncc2NC(=O)c2nc(-c3c(F)cccc3F)ncc2N)C[C@H](N)[C@H]1O (stereo in doubt) [Example 273, 5-amino-N-(4-((2S,4S,5R,6R)-4-amino-5-hydroxy-6-isopropyltetrahydro-2H-pyran-2-yl)pyridin-3-yl)-2-(2,6-difluorophenyl)pyrimidine-4-carboxamide] | 16100 nM | 23.1 nM | 660 nM | 512 nM | 
2 | Nc1cc(F)c(-c2c(F)cccc2F)nc1C(=O)Nc1cnccc1[C@H]1C[C@@H](N)[C@@]2(O)CCC[C@H]2O1 [Example 216, 3-amino-N-(4-((2R,4R,4aS,7aR)-4-amino-4a-hydroxyoctahydrocyclopenta[b]pyran-2-yl)pyridin-3-yl)-6-(2,6-difluorophenyl)-5-fluoropicolinamide] | 946 nM | 0.14 nM |  | 1.7 nM | 530 nM
3 | C[C@H]1O[C@@H](c2ccncc2NC(=O)c2csc(-c3c(F)cccc3F)n2)C[C@@H](N)[C@]1(C)O [Example 221, N-(4-((2R,4R,5S,6R)-4-amino-5-hydroxy-5,6-dimethyltetrahydro-2H-pyran-2-yl)pyridin-3-yl)-2-(2,6-difluorophenyl)thiazole-4-carboxamide] | 74.6 nM | 0.64 nM |  | 18.7 nM | 7720 nM
4 | C[C@@H]1O[C@H](c2ccncc2NC(=O)c2csc(-c3c(F)cccc3F)n2)C[C@H](N)[C@@]1(C)O [Example 222, N-(4-((2S,4S,5R,6S)-4-amino-5-hydroxy-5,6-dimethyltetrahydro-2H-pyran-2-yl)pyridin-3-yl)-2-(2,6-difluorophenyl)thiazole-4-carboxamide] | 3060 nM | 10.3 nM |  | 189 nM | > 10000 nM
5 | COc1cc(NC(=O)c2ccc(F)c(-c3c(F)cccc3F)n2)c([C@H]2C[C@@H](O)[C@H](O)[C@@H](CO)O2)cn1 [Example 225, 6-(2,6-difluorophenyl)-N-(5-((2R,4R,5S,6R)-4,5-dihydroxy-6-(hydroxymethyl)tetrahydro-2H-pyran-2-yl)-2-methoxypyridin-4-yl)-5-fluoropicolinamide] | > 25000 nM | 14600 nM |  | > 25000 nM | > 10000 nM
6 | O=C(Nc1cc(=O)[nH]cc1[C@H]1C[C@@H](O)[C@H](O)[C@@H](CO)O1)c1ccc(F)c(-c2c(F)cccc2F)n1 [Example 226, 6-(2,6-difluorophenyl)-N-(5-((2R,4R,5S,6R)-4,5-dihydroxy-6-(hydroxymethyl)tetrahydro-2H-pyran-2-yl)-2-oxo-1,2-dihydropyridin-4-yl)-5-fluoropicolinamide] | 10600 nM | 1430 nM |  | 23500 nM | > 10000 nM
7 | N[C@@H]1C[C@H](c2ccncc2NC(=O)c2csc(-c3c(F)cccc3F)n2)O[C@@H]2CCC[C@H]12 [Example 231, N-(4-((2R,4R,4aR,7aR)-4-aminooctahydrocyclopenta[b]pyran-2-yl)pyridin-3-yl)-2-(2,6-difluorophenyl)thiazole-4-carboxamide] | 53.2 nM | 0.24 nM |  | 14.6 nM | 5820 nM
8 | N[C@@H]1C[C@H](c2ccncc2NC(=O)c2ccc(F)c(-c3c(F)cccc3F)n2)O[C@H](C2CC2)[C@H]1O [Example 235, N-(4-((2R,4R,5S,6R)-4-amino-6-cyclopropyl-5-hydroxytetrahydro-2H-pyran-2-yl)pyridin-3-yl)-6-(2,6-difluorophenyl)-5-fluoropicolinamide] | 7420 nM | 0.35 nM | 9.9 nM | 7.6 nM | 
9 | N[C@@H]1C[C@H](c2ccncc2NC(=O)c2ccnc(-c3c(F)cccc3F)n2)O[C@@H]2CCCC[C@]12O [Example 237, N-(4-((2R,4R,4aS,8aR)-4-amino-4a-hydroxyoctahydro-2H-chromen-2-yl)pyridin-3-yl)-2-(2,6-difluorophenyl)pyrimidine-4-carboxamide] | 13 nM | 3.37 nM | 70 nM | 24 nM | 
10 | CC[C@]1(O)[C@H](N)C[C@H](c2ccncc2NC(=O)c2nc(-c3c(F)cccc3F)ncc2N)O[C@@H]1C [Example 239, 5-amino-N-(4-((2R,4R,5S,6R)-4-amino-5-ethyl-5-hydroxy-6-methyltetrahydro-2H-pyran-2-yl)pyridin-3-yl)-2-(2,6-difluorophenyl)pyrimidine-4-carboxamide] | 352 nM | 0.92 nM | 24 nM | 8.4 nM | 

Further lines, results first:

Row | IC50 (GSK3β) | IC50 (PIM1) | IC50 (PIM2) | IC50 (PIM3) | EC50 [1] | SMILES
11 | 10700 nM | 4.7 nM | 305 nM | 95.7 nM |  | CC(C)C1OC(c2ccncc2NC(=O)c2ccc(F)c(-c3c(F)cccc3F)n2)C[C@H](N)[C@H]1O (stereo in doubt) [Example 274, N-(4-((2S,4S,5R,6R)-4-amino-5-hydroxy-6-isopropyltetrahydro-2H-pyran-2-yl)pyridin-3-yl)-6-(2,6-difluorophenyl)-5-fluoropicolinamide]
12 | 16600 nM | 2.62 nM | 234 nM | 51.9 nM |  | CC[C@H]1O[C@@H](c2ccncc2NC(=O)c2ccc(F)c(-c3c(F)cccc3F)n2)C[C@@H](N)[C@]1(C)O (stereo in doubt) [Example 275, N-(4-((2R,4R,5S,6R)-4-amino-6-ethyl-5-hydroxy-5-methyltetrahydro-2H-pyran-2-yl)pyridin-3-yl)-6-(2,6-difluorophenyl)-5-fluoropicolinamide]
13 | 20900 nM | 0.47 nM | 17.4 nM | 4.6 nM |  | CC[C@@H]1O[C@H](c2ccncc2NC(=O)c2ccc(F)c(-c3c(F)cccc3F)n2)C[C@H](N)[C@@]1(C)O (stereo in doubt) [Example 276, N-(4-((2S,4S,5R,6S)-4-amino-6-ethyl-5-hydroxy-5-methyltetrahydro-2H-pyran-2-yl)pyridin-3-yl)-6-(2,6-difluorophenyl)-5-fluoropicolinamide]
14 | 9830 nM | 4.62 nM |  | 201 nM | 4380 nM | N[C@H]1C[C@@H](c2ccncc2NC(=O)c2ccc(F)c(-c3c(F)cccc3F)n2)O[C@H]2CCC[C@H]21 [Example 223, N-(4-((2S,4S,4aS,7aS)-4-aminooctahydrocyclopenta[b]pyran-2-yl)pyridin-3-yl)-6-(2,6-difluorophenyl)-5-fluoropicolinamide]
15 | > 25000 nM | 3.67 nM | 209 nM | 116 nM |  | N[C@H]1C[C@@H](c2ccncc2NC(=O)c2ccc(F)c(-c3c(F)cccc3F)n2)O[C@@H](C2CC2)[C@@H]1O [Example 236, N-(4-((2S,4S,5R,6S)-4-amino-6-cyclopropyl-5-hydroxytetrahydro-2H-pyran-2-yl)pyridin-3-yl)-6-(2,6-difluorophenyl)-5-fluoropicolinamide]
16 | 6300 nM | 20.8 nM | 393 nM | 132 nM |  | N[C@@H]1C[C@H](c2ccncc2NC(=O)c2ccc(F)c(-c3c(F)cccc3F)n2)O[C@@H]2CCC(=O)N[C@@H]12 [Example 241, N-(4-((2R,4R,4aS,8aR)-4-amino-6-oxooctahydro-2H-pyrano[3,2-b]pyridin-2-yl)pyridin-3-yl)-6-(2,6-difluorophenyl)-5-fluoropicolinamide]
17 | 809 nM | 0.08 nM | 12.2 nM | 1.2 nM |  | COc1ccc(F)c(-c2nc(C(=O)Nc3cnccc3[C@H]3C[C@@H](N)[C@](C)(O)[C@@H](C)O3)ccc2F)c1F [Example 244, N-(4-((2R,4R,5S,6R)-4-amino-5-hydroxy-5,6-dimethyltetrahydro-2H-pyran-2-yl)pyridin-3-yl)-6-(2,6-difluoro-3-methoxyphenyl)-5-fluoropicolinamide]
18 | 1580 nM |  | 71.3 nM |  | 1620 nM | CC(C)[C@@H]1C[C@H](N)C[C@H](c2ccncc2NC(=O)c2ccc(F)c(-c3c(F)cc(S(C)(=O)=O)cc3F)n2)O1 [Example 302, N-(4-((2R,4S,6S)-4-amino-6-isopropyltetrahydro-2H-pyran-2-yl)pyridin-3-yl)-6-(2,6-difluoro-4-(methylsulfonyl)phenyl)-5-fluoropicolinamide]
